Assays:
[1] = Dissociation constant for maltose using change in velocity of nitrocefin hydrolysis as signal; details: 22° C.; read-out: Kd for maltose binding
Procedure: (§1) A 6×His tag was added to the C-terminus of RG-200-13 (also termed “RG13” in Examples below) and the fusion was purified as previously described (Guntas and Ostermeier 2004). The protein was purified to approximately 60% purity. The kinetic constants and binding constants were determined from Eadie-Hofstee plots and Eadie plot equivalents, respectively, using a spectrophotometric assay for nitrocefin hydrolysis. Initial rates for nitrocefin hydrolysis were determined from absorbance at 486 nm monitored as a function of time. The enzyme was incubated at the assay temperature in the absence or presence of saccharide for four minutes prior to performing the assay. All assays contained 100 mM sodium phosphate buffer, pH 7.0. The dissociation constant for maltose was determined using change in velocity of nitrocefin hydrolysis as a signal.

[2] = Hydrolysis of cephalothin by RG-200-13 with and without 5 mM maltose; format: biochemical; details: substrate cephalothin 250 μM; pH 7.0, 22° C.
Procedure: as §1
(§2) Maltose binding had the largest effect on cephalothin (of the substrates tested), with the velocity of cephalothin hydrolysis being 32-fold higher in the presence of maltose than in its absence.

[3] = Hydrolysis of benzylpenicillin by RG-200-13 with and without 5 mM maltose; format: biochemical; details: pH 7.0, 22° C.
Procedure: as §1, §2

[4] = Hydrolysis of oxacillin by RG-200-13 with and without 5 mM maltose; format: biochemical; details: substrate oxacillin 1 mM; pH 7.0, 22° C.
Procedure: as §1, §2

[5] = 96-well colorimetric nitrocefin hydrolysis screen of lysates with or without 5 mM maltose; format: biochemical; details: 50 μM nitrocefin
Procedure: The naïve library was plated on LB agar plates supplemented with 200 μg/ml ampicillin and 50 mM maltose and incubated at 37° C. overnight. From these plates, 1056 colonies were picked to inoculate 1 ml LB media (supplemented with 50 μg/ml chloramphenicol and 1 mM IPTG) in 96-well format. After incubation overnight at 37′C, each culture was lysed using 0.1 ml Popculture reagent, 40 units of rLysozyme, and 2.5 units of benzonase nuclease. Lysates were centrifuged to pellet the insoluble material and the soluble fractions were assayed in 96-well format for nitrocefin hydrolysis in the presence or absence of 5 mM maltose using a colorimetric assay for nitrocefin hydrolysis (Posey et al. 2002). The assays were carried out at room temperature using the Spectramax-384 Plus microplate reader (Molecular Devices) in the presence of 100 mM sodium phosphate buffer and 50 μM nitrocefin in a 200 μl reaction volume.

[6] = Ampicillin hydrolysis by purified RG13, 25° C.; format: biochemical; details: 50 μM ampicillin
Procedure: All kinetic assays were performed at 25° C. in the presence of 100 mM sodium phosphate buffer, pH 7.0. Ten μl of enzyme stock was added to 1.59 ml buffer (containing the saccharide, if desired). After incubation for 30 seconds, 0.4 ml of 5× substrate was added and the absorbance at the appropriate wavelength was recorded using the Cary50 UV-VIS spectrophotometer. The wavelength monitored was 486 nm, 240 nm, and 232 nm for nitrocefin, carbenicillin, and ampicillin respectively. From the initial rate of reaction the kinetic constants were determined using Eadie-Hofstee plots. […] The rate data was consistent with a small hysteretic effect (Brennan et al. 1994) and not substrate inhibition as preincubation of the enzyme with the substrate for one minute prevented the lag from occurring upon addition of more substrate. Therefore, the steady state parameters for nitrocefin hydrolysis in the absence of maltose were determined by measuring the rate at 1-2 minutes (well after the lag) and correcting the substrate concentration by subtracting the amount of substrate hydrolyzed. In all cases the extent of reaction at the point the rate was measured was less than 25%. In the presence of maltose, no lag was observed.

[7] = Apparent dissociation constant for maltose from initial rate of nitrocefin hydrolysis; format: binding; details: 25° C.
Procedure: [formula] where ΔF is the change in fluorescence intensity, ΔFmax is the difference in fluorescence between no maltose and saturating amounts of maltose and [L] is the maltose concentration. The fluorescence quenching of RG13(1329W/A96W) upon addition of maltose was insufficient to accurately determine a Kd by this method. The dissociation constant for maltose and RG13(I329W) in the presence of saturating carbenicillin (2 mM) was determined by measuring the initial rate of carbenicillin hydrolysis as a function of maltose concentration. The apparent dissociation constant in the presence of subsaturating concentrations of nitrocefin (25 μM) for all three proteins was determined by measuring the initial rate of nitrocefin hydrolysis as a function of maltose concentration.

[8] = Dissociation constant for maltose from initial rate of carbenicillin hydrolysis; format: binding; details: 1.5 mM carbenicillin, 25° C., read-out: Kd maltose, Saturating Carbenicillin, Enzymatic assay
[9] = tested on: DH5α-E cells; assay: In vivo characterization: MIC of ampicillin for DH5α-E cells expressing the protein; format: cell-based, E. coli; details: for Minimum Inhibitory Concentration of Ampicillin: LB plates, 37° C., 20 hours
Procedure: Overnight inoculums of DH5α-E cells expressing RG13, BLA or BLA(W208G) were diluted into LB media and plated on LB plates, either in the absence or presence of 50 μM maltose, in the presence of increasing amounts of ampicillin. Ampicillin was present in the plates at the following concentrations: 0, 2, 4, 8, 16, 32, 64, 128, 256, 512, and 2000 μg/ml. Cells were plated at approximately 1000 CFU (no antibiotic) per plate. The plates were incubated at 37° C. for 20 hours. The minimum inhibitory concentration (MIC) was defined as the lowest ampicillin concentration at which no colonies were present, or that at which the number of colonies present was <1% of the number of colonies at the next lowest level of ampicillin.

[10] = tested on: E. coli cells; assay: MIC of ampicillin for E. coli cells expressing RG13 from pDIMC8 (Table 11); format: cell-based
Text: The signal recognition domain can be altered by rational design or directed evolution to bind to new effectors. With respect to testing mutations predicted by rational design or screening or selecting libraries created for a directed evolution approach, existing switches are used to efficiently test or select for binding to new ligands in vivo. For example, E. coli cells expressing the MBP-BLA switch RG13 from the lac promoter on pDIMC8 have a higher MIC for ampicillin (Amp) in the presence of maltose than in their absence (Table 11) because the BLA enzymatic activity of RG13 (hydrolysis of ampicillin) is higher in the presence of maltose. Thus, for example, mutations created in RG13 (either by rational design or by a stochastic or semi-stochastic method) such that mutant forms of RG13 bind another ligand X (and behave as a switch) can be screened or selected for in vivo. E. coli producing such a new switch will grow at 200 μg/ml Amp in the presence of X but not in the absence of X.

RG13: MBP-BLA fusion switch MBP[1-316]-BLA[227-286]-GSGGG-BLA[24-226]-S-MBP[319-370]; SEQ ID NO: 61
Kd [1]: ~5 µM
Fold increase in velocity of cephalothin hydrolysis with 5 mM maltose [2]: 32 fold
Approximate fold increase in velocity of benzylpenicillin hydrolysis in the presence of 5 mM maltose ([3]; substrate benzylpenicillin 100 μM): ~17 fold
Approximate fold increase in velocity of benzylpenicillin hydrolysis in the presence of 5 mM maltose ([3]; substrate benzylpenicillin 500 μM): ~7 fold
Approximate fold increase in velocity of oxacillin hydrolysis in the presence of 5 mM maltose [4]: ~5 fold
Increase of initial velocity of nitrocefin hydrolysis in the presence of maltose [5]: 17 fold
Rate increase with maltose [6]: 16 fold
Kd [7]: 6.7 ± 0.03 µM
Kd [8]: 0.9 ± 0.1 µM
Effect of the same concentration (50 μM) of sucrose or glucose on the MIC [9]: did not affect the MIC
Increase of MIC for ampicillin in the presence of 50 μM maltose [9]: four-fold
Minimum Inhibitory Concentration of Ampicillin ([9]; 50 μM maltose): 512 µg/mL
Minimum Inhibitory Concentration of Ampicillin ([9]; No maltose): 128 µg/mL
MIC ampicillin ([10]; supplement to plate: 50 μM maltose): 400 µg/mL
MIC ampicillin ([10]; supplement to plate: 5 mM maltose): 400 µg/mL
MIC ampicillin ([10]; supplement to plate: none, LB plates, 37° C.): 100 µg/mL

Reference: US9290544B2, “Methods for making and using molecular switches involving circular permutation” (priority 2004, dated 2016)
